Laboratory results: patent US20240002435A1, “SYNTHETIC PEPTIDE AND APPLICATION THEREOF” (Wuhan Innerse Pharmaceutical Inc., priority 2021, published 2024)
“And” between values parts separate entries of the source, which are not always exact repeats. Identical values can stand only once. Where no end group is shown, it is not given here. [ ]: non-standard residue; d: D form. βAla = NCCC(=O)O

Assays:
[1] = system: rat model of cerebral ischemia (middle cerebral artery occlusion, MCAO); experiment: MCAO rat cerebral ischemia model, blinded behavioral scoring 0-5 points (Example 9); type: in vivo, SD rats; conditions: 3 mg/kg tail vein; for Behavioral score, mean value / Behavioral score: 22-24 h after suturation, scale 0-5 points; for Behavioral score, mean value: mean of 6 rats
Procedure: (§1) In order to determine the application of the synthetic peptides provided by the present invention in neurological diseases, the present invention uses SD rats as experimental objects, and performs middle cerebral artery occlusion method (MCAO) to prepare rat model of cerebral ischemia. These rats were injected drugs intravenously 1-2 hours after ischemia, and a behavioral observation and scoring was conducted for each animal after 22-24 hours. After the behavioral observation, the experimental rats were euthanized and their brains were removed, cut to sections and stained with TTC for quantitative analysis, and the cerebral infarct volume % was calculated.
(§2) The experimental SD rat was weighed and anesthetized with chloral hydrate. After anesthesia, the limbs of the rat were fixed, and the rat was placed in a supine position, connected to the small-animal monitor, and monitored for important physiological parameters such as body temperature, blood pressure and heart rate, etc. The rat's neck was shaved and disinfected with 75% alcohol cotton ball. A middle incision of about 2 cm length was then made on the neck of the experimental rat, and the submandibular gland of the rat was bluntly separated while avoiding damage to the gland. Then, the left common carotid artery (CCA) of the experimental rat was bluntly separated, and the internal carotid artery (ICA) and external carotid artery (ECA) were carefully separated upward along the CCA. Any damage to vagus nerves was avoided during the separation. The CCA and ICA were clamped respectively with two artery clamps, and the distal end of the ECA was cut off and a silicone suture emboli was inserted into the ECA “port” to the ICA artery clamp, then the artery clamp was quickly loosened and the tip of the suture emboli was put in through the artery clamp quickly before clamping the ICA again. This step was repeated and the suture emboli was put in further until the black mark of the suture emboli reached the bifurcation of the ECA and ICA, and the tip of the suture emboli blocked the middle cerebral artery and then the ECA “port” and the suture emboli was tied tightly using a thread in order to prevent the “escape” of suture emboli or bleeding after the rat waked up. The artery clamps on the CCA and ICA were then loosed and removed to restore the tissue to its original position, and an appropriate amount of penicillin was applied to prevent wound infection. A medical suture needle with thread was used to suture, and the wound was disinfected using povidone-iodine again after the suturation. The experimental rats were monitored with the small-animal monitor to evaluate if their physiological parameters were normal, and the rats were placed on a small-animal electric blanket to keep their body temperature until they waked up, and placed in animal cages.
(§3) The drug to be tested was prepared as 3 mg/mL solution. The drug was dosed via tail vein 1-2 h after the suturation.
(§4) During the drug administration, the rat was fastened with a fastening device, and the drug to be tested was injected into the tail vein of the rat at 3 mg/kg using 1 mL syringe, the drug was injected slowly to reduce the cardiopulmonary load of the experimental rat.
(§5) The animals were divided into different test groups, with 6 rats for each group.
(§6) Drug groups S1 (NA1), S8 (beta-Ala-His-Gly) and S9 (Gly-beta-Ala-His): administered via tail vein after the suturation;
The behavioral observation and scoring were performed on each animal 22-24 h after the suturation.

[2] = system: rat model of cerebral ischemia (middle cerebral artery occlusion, MCAO); experiment: MCAO rat cerebral ischemia model, TTC staining, cerebral infarct volume (Example 9); type: in vivo, SD rats; conditions: for Cerebral infarction volume (TTC quantification), mean value / Cerebral infarction volume (TTC quantification): 3 mg/kg tail vein 1-2 h after suturation, read 22-24 h; for Cerebral infarction volume (TTC quantification), mean value: mean of 6 rats
Procedure: as §1, §2, §3, §4, §5, §6
After behavioral observations, experimental rats were euthanized and their brains were removed. The brain tissue was transversely cut into 6 slices with a 2 mm thickness, then transferred to TTC staining solution, incubated in a 37° C. incubator without light for 10 min, and taken pictures. The TTC-stained brain tissue and the remaining non-stained brain tissue were stored at −20° C.
Quantitative analysis of photos after TTC staining was performed using Image J software. […]

[3] = Dose-effect experiment, body weight of MCAO model animals (Example 10); conditions: mean ± SD
Procedure: The establishment of rat model: the rats were placed in an anesthesia induction box filled with 3.0% isoflurane for anesthesia induction. Anesthesia-induced animals were transferred to the operating table, and anesthesia was maintained with 2.0%˜2.5% isoflurane at 200 mL/min using a small-animal gas anesthesia machine, and the eyelid reflex and pain response of the rats were observed. The surgery can be started only after the eyelid reflex response and the pain response on limbs and tail disappeared. • A. Isolating and exposing blood vessels: the skin of the surgical area was shaved, and the rat was placed under a surgical microscope. The skin of the rat was cut along the midline with ophthalmic scissors, with a cut of about 2 cm length. […]
Animals measured: all the surviving experimental animals planned to be measured;
Measurement time: the body weight was measured at least twice during the accommodation, and each batch of rats were weighed once on the day before the surgery and on the day of dissection to calculate the amount of drug administered and the anesthetic applied; the body weight was measured twice a week after the surgery.

[4] = system: experimental cerebral ischemia-reperfusion in animals; conditions: cynomolgus monkeys, preclinical ischemic stroke model; cited from earlier work
[5] = system: suture-embolized MCAO model, rat cerebral ischemic stroke; experiment: Dose-effect experiment, rat neurological function score NSS (Example 10); type: in vivo, Sprague-Dawley (SD) rats; conditions: mean ± SD
Procedure: Measurement time: 24 hours before and after modeling;
Measurement method: a motor function test, sensory test, balance test, and reflex and abnormal behavior test were performed on animals, according to the rat neurological function score scale (NS S) for details.

[6] = system: suture-embolized MCAO model, rat cerebral ischemic stroke; experiment: Dose-effect experiment, suture-embolized MCAO ischemia-reperfusion, TTC infarct size and inhibition rate (Example 10); type: in vivo, Sprague-Dawley (SD) rats
Procedure: The establishment of rat model: the rats were placed in an anesthesia induction box filled with 3.0% isoflurane for anesthesia induction. Anesthesia-induced animals were transferred to the operating table, and anesthesia was maintained with 2.0%˜2.5% isoflurane at 200 mL/min using a small-animal gas anesthesia machine, and the eyelid reflex and pain response of the rats were observed. The surgery can be started only after the eyelid reflex response and the pain response on limbs and tail disappeared. • A. Isolating and exposing blood vessels: the skin of the surgical area was shaved, and the rat was placed under a surgical microscope. The skin of the rat was cut along the midline with ophthalmic scissors, with a cut of about 2 cm length. Through the right neck of the rat, the muscle tissue of the right neck was bluntly isolated and opened with a microforcep to expose the right common carotid artery (CCA), and then isolated upward along the common carotid artery to further expose the external carotid artery (ECA) and internal carotid artery (ICA); • B. The ECA was ligated and the ICA was temporarily clamped; the proximal end and distal end of CCA were threaded separately, the distal end was tied tightly and the proximal end was tied with a loose knot, and a small incision was made between the two threads; • C. Inserting the suture emboli: A No. 4-0 suture emboli was inserted through the incision of CCA, pushed slowly and gently into the internal carotid artery, and stopped at the artery clamp of ICA, the pre-set thread was tied tightly (to avoid severe bleeding when pushing the suture emboli), then the artery clamp that blocked the blood flow of ICA was removed, and the suture emboli was immediately pushed into ICA until entering into the cranium. At the moment, one should be careful not to insert the suture emboli into the pterygopalatine artery, which is another branch of the internal carotid artery (the pterygopalatine artery is one of the extra-cranial branches of ICA; when the suture emboli entered the pterygopalatine artery to a depth of about 10 mm, it cannot be inserted further, at the moment one should slightly draw back the suture emboli, adjust the direction, and insert again); • D. Fixing the suture emboli and suturing the incision: if one felt slight resistance when the suture emboli was inserted about 18 mm depth from the bifurcation of the common carotid artery, it means that the tip of the suture emboli has entered into the cerebral anterior artery (ACA), and the side wall of the suture emboli has blocked the opening of the middle cerebral artery; at the moment, the insertion was terminated and the time was recorded. […]

[7] = system: patients with acute ischemic stroke (AIS) undergoing endovascular thrombectomy; conditions: 2.6 mg/kg intravenous injection; cited from earlier work
[8] = system: suture-embolized MCAO model, rat cerebral ischemic stroke; experiment: Dose-effect experiment, Bederson score (Example 10); type: in vivo, Sprague-Dawley (SD) rats; conditions: 3 mg/kg group; 1 hour after ischemia, i.e. before dosing (model check); mean ± SD
Procedure: Measurement time: 1 hour after ischemia on the day of modeling;
Animals measured: all the animals survived in surgery;
Measurement method: the Bederson scoring standard was used to score animals.

[9] = 3 mg/kg group, D 0 = 1 day before surgery (baseline)
[10] = 3 mg/kg i.v., D 2 = 1 day after surgery

Substance	Behavioral score, mean value [1]	Behavioral score ([1]; rat No. 1)	Behavioral score ([1]; rat No. 2)	Behavioral score ([1]; rat No. 3)	Behavioral score ([1]; rat No. 4)	Behavioral score ([1]; rat No. 5)	Behavioral score ([1]; rat No. 6)	Cerebral infarction volume (TTC quantification), mean value [2]	Cerebral infarction volume (TTC quantification) ([2]; rat No. 1)	Cerebral infarction volume (TTC quantification) ([2]; rat No. 2)	Cerebral infarction volume (TTC quantification) ([2]; rat No. 3)	Cerebral infarction volume (TTC quantification) ([2]; rat No. 4)	Cerebral infarction volume (TTC quantification) ([2]; rat No. 5)	Cerebral infarction volume (TTC quantification) ([2]; rat No. 6)	further results
Gly-[βAla]-His [S9]	2.0	3	3	2	2	1	1	0.197±0.059 and 0.197	0.239	0.206	0.208	0.263	0.171	0.095	Behavioral score, statistical comparison with S1 (NA1) [1]: not statistically different from S1; Behavioral score, mean value ([1]; listed as Gly-beta-Ala-His): 2.0±0.9; Infarct volume, statistical comparison with S1 (NA1) ([2]; 3 mg/kg tail vein): not statistically different from S1
YGRKKRRQRRRKLSSIESDV [S1, Nerinetide]	2.0	2	2	2	2	1	3	0.157	0.187	0.218	0.153	0.145	0.107	0.134	Weight D 0 [3, 9]: 251.91 ± 8.69 g; Weight D 2 [3, 10]: 203.7 ± 10.94 g; Effect on infarct size of experimental cerebral ischemia-reperfusion [4]: reduce the infarct size; NSS score D 0 [5, 9]: 0 ± 0; NSS score D 2 [5, 10]: 8.00±0.76; Behavioral score, mean value ([1]; listed as NA1): 2.0±0.6; Infarct weight ([6]; 3 mg/kg i.v. once within 10 min after reperfusion, 24 h after treatment, mean ± SD): 0.24 ± 0.02 g; Infarct size ([6]; 3 mg/kg i.v. once within 10 min after reperfusion, TTC 24 h after treatment, infarct weight / whole brain weight, mean ± SD): 16.74±3.14%; Inhibition rate of cerebral infarction ([6]; 3 mg/kg i.v., calculated from infarct size vs model control group): 33%; Effect on patient's prognosis [7]: improved patient's prognosis; Bederson [8]: 3 ± 0
